Data from US6599905B2, “Pyrazine compounds” (SmithKline Beecham Corporation, priority 1997, dated 2003).

Row | melting point | Compound
1 | 240 to 244 °C | Nc1nc(NC(=O)C2CC2)cnc1-c1cc(Cl)cc(Cl)c1Cl [Example 9, 2-Amino-6-cyclopropylcarbonylamino-3-(2,3,5-trichlorophenyl)pyrazine]
2 | 277 to 279 °C | N#Cc1nc(-c2cc(Cl)cc(Cl)c2Cl)c(N)nc1N [Example 17, 5-Cyano-2,6-Diamino-3-(2,3,5-trichlorophenyl)pyrazine]
3 | 212 to 214 °C | O=C(Nc1cnc(-c2cc(Cl)cc(Cl)c2Cl)c(NC(=O)C2CC2)n1)C1CC1 [Example 9, 2,6-Dicyclopropylcarbonylamino-3-(2,3,5-trichlorophenyl) pyrazine]
4 | 227 to 229 °C | CC(C)C(=O)Nc1cnc(-c2cc(Cl)cc(Cl)c2Cl)c(NC(=O)C(C)C)n1 [Example 10, 2,6-Diisopropylcarbonylamino-3-(2,3,5-trichlorophenyl) pyrazine]
